From ChEMBL document CHEMBL5678818, “Discovery of potent SOS1 inhibitors that block RAS activation via disruption of the RAS-SOS1 interaction” (Proc Natl Acad Sci U S A, 2019)

How the values were obtained:
[1] = target: T1, Homeodomain-interacting protein kinase 4 (Homo sapiens) (UniProt Q8NE63); assay: Inhibition of HIPK4 (unknown origin) assessed as residual activity at 100 nM by KINOMEscan analysis relative to control
T1 sequence (whole entry): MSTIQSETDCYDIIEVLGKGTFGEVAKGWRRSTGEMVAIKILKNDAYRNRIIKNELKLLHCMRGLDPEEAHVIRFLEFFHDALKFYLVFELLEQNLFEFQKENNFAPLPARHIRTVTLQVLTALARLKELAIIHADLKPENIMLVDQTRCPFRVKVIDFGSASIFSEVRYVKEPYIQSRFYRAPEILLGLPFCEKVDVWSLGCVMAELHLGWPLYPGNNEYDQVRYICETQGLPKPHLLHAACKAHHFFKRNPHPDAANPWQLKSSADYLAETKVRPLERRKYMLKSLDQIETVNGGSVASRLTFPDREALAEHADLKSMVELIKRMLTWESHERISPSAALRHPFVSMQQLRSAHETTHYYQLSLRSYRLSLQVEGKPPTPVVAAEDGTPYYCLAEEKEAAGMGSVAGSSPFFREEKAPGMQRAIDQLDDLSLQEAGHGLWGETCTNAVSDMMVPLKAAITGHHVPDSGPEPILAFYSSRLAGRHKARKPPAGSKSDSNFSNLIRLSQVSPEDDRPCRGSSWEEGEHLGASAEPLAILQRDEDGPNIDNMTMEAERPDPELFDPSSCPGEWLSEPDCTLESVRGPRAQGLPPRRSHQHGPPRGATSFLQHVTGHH

[2] = target: T2, Protein kinase C epsilon type (Homo sapiens) (UniProt Q02156); assay: Inhibition of PRKCE (unknown origin) assessed as residual activity at 100 nM by KINOMEscan analysis relative to control
T2 sequence (whole entry): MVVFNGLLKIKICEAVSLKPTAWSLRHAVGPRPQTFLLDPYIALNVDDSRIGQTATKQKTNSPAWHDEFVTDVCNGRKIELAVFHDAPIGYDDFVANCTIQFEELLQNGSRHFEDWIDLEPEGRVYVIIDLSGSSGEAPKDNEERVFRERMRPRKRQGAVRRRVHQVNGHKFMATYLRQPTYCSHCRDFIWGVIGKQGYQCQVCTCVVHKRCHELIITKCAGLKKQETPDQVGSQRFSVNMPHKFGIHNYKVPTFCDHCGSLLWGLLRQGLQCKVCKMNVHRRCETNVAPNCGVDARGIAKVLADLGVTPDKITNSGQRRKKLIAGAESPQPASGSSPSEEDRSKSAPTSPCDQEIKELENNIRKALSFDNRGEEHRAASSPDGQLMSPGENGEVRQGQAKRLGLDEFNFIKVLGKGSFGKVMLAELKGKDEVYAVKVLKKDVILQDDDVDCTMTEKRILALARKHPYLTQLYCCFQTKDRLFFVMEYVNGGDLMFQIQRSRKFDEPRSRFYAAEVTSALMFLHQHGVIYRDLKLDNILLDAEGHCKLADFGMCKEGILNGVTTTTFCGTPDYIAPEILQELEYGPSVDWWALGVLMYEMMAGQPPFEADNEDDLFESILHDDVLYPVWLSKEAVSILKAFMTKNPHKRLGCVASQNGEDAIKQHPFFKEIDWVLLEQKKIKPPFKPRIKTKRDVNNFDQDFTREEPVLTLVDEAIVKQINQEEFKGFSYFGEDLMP

[3] = target: Tyrosine-protein kinase Fer (Homo sapiens) (UniProt P16591); assay: Inhibition of FER (unknown origin) assessed as residual activity at 100 nM by KINOMEscan analysis relative to control
Chain of Tyrosine-protein kinase Fer (Homo sapiens) (P16591 whole entry, looked up): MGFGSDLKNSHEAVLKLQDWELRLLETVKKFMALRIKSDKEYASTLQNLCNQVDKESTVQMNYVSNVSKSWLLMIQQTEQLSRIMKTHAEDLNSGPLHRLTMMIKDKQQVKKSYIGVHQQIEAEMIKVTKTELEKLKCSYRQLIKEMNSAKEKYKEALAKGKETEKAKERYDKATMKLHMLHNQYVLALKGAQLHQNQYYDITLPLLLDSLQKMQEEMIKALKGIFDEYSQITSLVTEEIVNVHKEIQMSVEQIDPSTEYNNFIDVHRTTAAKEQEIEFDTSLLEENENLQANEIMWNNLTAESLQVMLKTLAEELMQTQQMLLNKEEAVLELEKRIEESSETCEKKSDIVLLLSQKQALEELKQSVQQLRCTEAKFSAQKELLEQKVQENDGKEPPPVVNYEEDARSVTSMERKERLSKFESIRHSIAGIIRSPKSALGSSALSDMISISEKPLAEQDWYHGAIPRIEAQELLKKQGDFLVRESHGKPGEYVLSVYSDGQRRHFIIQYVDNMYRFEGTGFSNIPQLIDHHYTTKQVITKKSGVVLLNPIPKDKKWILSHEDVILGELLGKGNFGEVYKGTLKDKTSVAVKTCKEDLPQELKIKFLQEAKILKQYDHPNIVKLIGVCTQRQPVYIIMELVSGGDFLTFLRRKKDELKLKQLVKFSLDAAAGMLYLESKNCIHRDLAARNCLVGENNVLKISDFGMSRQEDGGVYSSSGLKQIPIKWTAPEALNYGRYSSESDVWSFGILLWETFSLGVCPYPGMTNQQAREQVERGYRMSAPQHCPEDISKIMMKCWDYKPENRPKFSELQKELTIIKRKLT

[4] = target: Calcium-dependent protein kinase 1 (Plasmodium falciparum) (UniProt P62344); assay: Inhibition of Plasmodium falciparum CDPK1 assessed as residual activity at 100 nM by KINOMEscan analysis relative to control
Chain of Calcium-dependent protein kinase 1 (Plasmodium falciparum) (P62344 2-524 limits assumed): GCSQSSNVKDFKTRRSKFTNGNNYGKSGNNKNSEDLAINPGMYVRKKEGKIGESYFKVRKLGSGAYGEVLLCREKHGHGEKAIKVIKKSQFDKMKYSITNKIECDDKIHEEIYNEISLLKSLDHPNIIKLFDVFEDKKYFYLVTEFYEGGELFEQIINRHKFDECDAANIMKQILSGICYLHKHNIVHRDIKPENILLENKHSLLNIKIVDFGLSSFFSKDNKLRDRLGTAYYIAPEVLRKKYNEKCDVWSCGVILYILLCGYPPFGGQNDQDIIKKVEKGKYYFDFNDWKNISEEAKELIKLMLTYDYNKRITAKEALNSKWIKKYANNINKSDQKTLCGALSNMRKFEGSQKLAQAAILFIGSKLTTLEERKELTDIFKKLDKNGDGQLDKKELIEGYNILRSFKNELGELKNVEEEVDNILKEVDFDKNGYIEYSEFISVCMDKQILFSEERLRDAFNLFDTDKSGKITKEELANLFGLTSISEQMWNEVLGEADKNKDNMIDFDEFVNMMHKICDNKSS

[5] = target: Ephrin type-A receptor 7 (Homo sapiens) (UniProt Q15375); assay: Inhibition of EPHA7 (unknown origin) assessed as residual activity at 100 nM by KINOMEscan analysis relative to control
Chain of Ephrin type-A receptor 7 (Homo sapiens) (Q15375 28-998 limits assumed): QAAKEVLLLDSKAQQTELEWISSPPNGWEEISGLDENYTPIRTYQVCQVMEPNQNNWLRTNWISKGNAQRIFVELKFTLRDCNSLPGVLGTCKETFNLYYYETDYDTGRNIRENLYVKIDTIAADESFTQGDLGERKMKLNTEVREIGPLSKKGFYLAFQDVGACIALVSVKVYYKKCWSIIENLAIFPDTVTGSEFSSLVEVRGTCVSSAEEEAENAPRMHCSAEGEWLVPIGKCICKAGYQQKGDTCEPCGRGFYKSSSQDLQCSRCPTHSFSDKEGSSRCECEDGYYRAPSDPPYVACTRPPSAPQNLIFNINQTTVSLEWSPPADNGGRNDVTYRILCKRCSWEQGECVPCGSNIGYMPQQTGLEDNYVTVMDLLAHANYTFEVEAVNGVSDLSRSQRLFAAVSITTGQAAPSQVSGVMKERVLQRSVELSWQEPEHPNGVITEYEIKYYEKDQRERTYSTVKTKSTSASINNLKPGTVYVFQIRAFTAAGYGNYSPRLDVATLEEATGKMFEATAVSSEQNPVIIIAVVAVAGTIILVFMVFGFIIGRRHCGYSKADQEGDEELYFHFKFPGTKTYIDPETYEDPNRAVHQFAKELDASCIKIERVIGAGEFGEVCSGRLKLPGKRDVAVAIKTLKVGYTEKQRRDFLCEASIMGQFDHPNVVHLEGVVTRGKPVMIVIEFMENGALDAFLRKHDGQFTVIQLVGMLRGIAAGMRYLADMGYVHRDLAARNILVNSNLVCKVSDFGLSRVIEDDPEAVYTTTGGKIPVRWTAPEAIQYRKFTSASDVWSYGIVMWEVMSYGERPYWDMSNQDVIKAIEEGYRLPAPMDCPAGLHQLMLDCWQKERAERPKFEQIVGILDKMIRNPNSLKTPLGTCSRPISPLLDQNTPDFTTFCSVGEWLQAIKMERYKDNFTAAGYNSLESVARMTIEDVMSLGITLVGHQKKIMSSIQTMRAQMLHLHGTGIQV

[6] = system: Tyrosine-protein kinase ABL1 (Homo sapiens), P00519 [E255K]; assay: Inhibition of phosphorylated ABL1 E255K mutant (unknown origin) assessed as residual activity at 100 nM by KINOMEscan analysis relative to control
Chain of Tyrosine-protein kinase ABL1 (Homo sapiens), P00519 [E255K] (P00519 whole entry E255K): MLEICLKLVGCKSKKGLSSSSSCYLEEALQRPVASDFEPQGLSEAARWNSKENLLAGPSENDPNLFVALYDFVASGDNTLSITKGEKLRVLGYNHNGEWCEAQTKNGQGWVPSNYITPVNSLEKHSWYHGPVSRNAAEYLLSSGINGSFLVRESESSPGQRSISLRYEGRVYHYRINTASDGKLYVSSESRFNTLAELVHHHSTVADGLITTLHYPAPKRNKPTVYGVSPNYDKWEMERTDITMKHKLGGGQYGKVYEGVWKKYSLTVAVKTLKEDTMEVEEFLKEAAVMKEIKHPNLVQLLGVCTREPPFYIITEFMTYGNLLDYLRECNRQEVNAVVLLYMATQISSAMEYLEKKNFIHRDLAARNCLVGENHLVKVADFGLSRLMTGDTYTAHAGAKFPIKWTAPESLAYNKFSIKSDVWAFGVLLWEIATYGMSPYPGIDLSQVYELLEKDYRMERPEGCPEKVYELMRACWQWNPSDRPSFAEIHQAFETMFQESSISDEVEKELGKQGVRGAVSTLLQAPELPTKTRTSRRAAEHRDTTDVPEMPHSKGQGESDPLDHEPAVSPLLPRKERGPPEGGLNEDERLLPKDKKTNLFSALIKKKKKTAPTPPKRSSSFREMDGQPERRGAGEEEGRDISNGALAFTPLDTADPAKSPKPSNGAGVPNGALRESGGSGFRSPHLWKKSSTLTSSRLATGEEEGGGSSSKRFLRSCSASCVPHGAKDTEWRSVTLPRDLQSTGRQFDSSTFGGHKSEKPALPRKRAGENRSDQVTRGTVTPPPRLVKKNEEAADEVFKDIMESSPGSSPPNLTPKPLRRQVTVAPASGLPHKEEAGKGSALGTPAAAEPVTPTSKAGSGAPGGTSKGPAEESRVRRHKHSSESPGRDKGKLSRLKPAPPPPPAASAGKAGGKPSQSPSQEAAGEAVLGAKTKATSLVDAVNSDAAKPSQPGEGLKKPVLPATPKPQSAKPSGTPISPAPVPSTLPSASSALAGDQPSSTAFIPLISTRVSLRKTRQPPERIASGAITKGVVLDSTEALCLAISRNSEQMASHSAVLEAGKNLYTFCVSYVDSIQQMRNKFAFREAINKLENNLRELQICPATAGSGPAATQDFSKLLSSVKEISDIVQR

[7] = target: T3, Serine/threonine-protein kinase Nek10 (Homo sapiens) (UniProt Q6ZWH5); assay: Inhibition of NEK10 (unknown origin) assessed as residual activity at 100 nM by KINOMEscan analysis relative to control
T3 sequence (whole entry): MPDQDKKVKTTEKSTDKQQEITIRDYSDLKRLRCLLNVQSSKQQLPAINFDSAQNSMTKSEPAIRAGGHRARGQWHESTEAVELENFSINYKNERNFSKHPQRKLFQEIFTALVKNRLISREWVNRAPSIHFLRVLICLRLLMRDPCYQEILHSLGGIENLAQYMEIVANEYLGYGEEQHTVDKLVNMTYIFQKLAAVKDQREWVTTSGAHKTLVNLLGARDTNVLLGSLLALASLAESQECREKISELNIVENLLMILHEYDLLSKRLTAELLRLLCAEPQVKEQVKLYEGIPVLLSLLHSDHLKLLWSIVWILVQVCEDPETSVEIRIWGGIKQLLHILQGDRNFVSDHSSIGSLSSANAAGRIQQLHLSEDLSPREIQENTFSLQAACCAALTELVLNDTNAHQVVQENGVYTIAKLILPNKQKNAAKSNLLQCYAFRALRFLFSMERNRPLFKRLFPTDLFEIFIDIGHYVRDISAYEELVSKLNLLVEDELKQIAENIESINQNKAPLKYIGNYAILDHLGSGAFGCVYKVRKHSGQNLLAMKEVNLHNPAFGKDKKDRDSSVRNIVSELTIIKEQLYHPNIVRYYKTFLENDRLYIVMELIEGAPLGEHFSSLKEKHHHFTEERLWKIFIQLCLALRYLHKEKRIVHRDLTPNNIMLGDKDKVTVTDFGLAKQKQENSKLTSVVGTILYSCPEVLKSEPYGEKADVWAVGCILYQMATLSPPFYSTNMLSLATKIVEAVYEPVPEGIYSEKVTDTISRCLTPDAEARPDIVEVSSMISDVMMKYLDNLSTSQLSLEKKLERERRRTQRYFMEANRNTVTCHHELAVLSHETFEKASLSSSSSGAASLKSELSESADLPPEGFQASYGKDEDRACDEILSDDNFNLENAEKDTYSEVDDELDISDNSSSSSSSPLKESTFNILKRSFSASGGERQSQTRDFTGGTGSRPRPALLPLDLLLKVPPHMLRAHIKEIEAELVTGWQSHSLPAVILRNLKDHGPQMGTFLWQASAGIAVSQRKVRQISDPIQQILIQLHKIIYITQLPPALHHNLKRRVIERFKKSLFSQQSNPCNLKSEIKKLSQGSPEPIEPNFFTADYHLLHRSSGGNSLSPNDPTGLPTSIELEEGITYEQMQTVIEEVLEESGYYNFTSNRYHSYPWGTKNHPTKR

COc1cc2ncnc(N[C@H](C)c3cccc4ccccc34)c2cc1OC gave an Activity [1] of 100%, an Activity [2] of 96% and an Activity [3] of 100%. It also gave an Activity [4] of 84%, an Activity [5] of 78% and an Activity [6] of 99%. The Activity [7] was 75%.
